Data as given in article PMC8991007, “Benzylic Dehydroxylation of Echinocandin Antifungal Drugs Restores Efficacy against Resistance Conferred by Mutated Glucan Synthase” (Journal of the American Chemical Society, 2022).
Like-named read-outs stand apart in the source and are kept apart here. *1 amine or outer side, *2 acyl side, *3 side chain or, on linkers, in order; H or OH if unused. Where a SMILES comes first, the peptide text is derived from it. Bridges are numbered along the chain shown (N, C = ends). [ ]: non-standard residue; d: D form. The star is where a group is joined. Orn(4R-OH,5R-OCH2CH2NMe3+) = C[N+](C)(C)CCO[C@@H](N[*:3])[C@H](O)C[C@H](N[*:1])C(=O)[*:2]; pTerphenylCO(4''-OnC5H11) = CCCCCOc1ccc(-c2ccc(-c3ccc(C(=O)*)cc3)cc2)cc1; Orn(4R-OH,5R-OH) = O=C([C@H](C[C@@H](O)[C@@H](O)N[*:3])N[*:1])[*:2]; hTyr(3S-OH,4S-OH) = N[C@H](C(=O)O)[C@H](O)[C@@H](O)c1ccc(O)cc1; Pro(3S-OH,4S-Me) = C[C@H]1CN[C@H](C(=O)O)[C@H]1O; hTyr(3R-OH) = N[C@H](C(=O)O)[C@H](O)Cc1ccc(O)cc1; Hyp = O=C(O)[C@@H]1C[C@@H](O)CN1

Legend:
[1] = design: method as in PMID 23335738; settings: patients with candidemia or invasive candidiasis, 200 mg loading dose day 1 then daily 100 mg; cited from earlier work
[2] = system: THLE-2 cells; experiment: cells; format: cell-based; settings: Homo sapiens
Method: The effects of ANF and RZF and their dehydroxylated derivatives 1 and 2 on the viability of human cells were further evaluated in an assay with THLE-2 cells, which are a transformed human liver epithelial cell line. These cells express phenotypic characteristics of normal adult liver epithelial cells.
THLE-2 cells (ATCC, cat. no. CRL2706) were cultured in 384-well plates coated with BEBM (Lonza, cat. no CC3170) containing 100 μg/mL BSA, 1:100 fibronectin (Sigma, cat. no. F0895), and a 1:100 PureCol EZ Gel Solution (Sigma, cat. no. 5074) for 50–60 min at 37 °C. THLE-2 cells were plated at a density of 2.5 × 10^3 cells/well in the coated plates in a total volume of 20 μL. Culture media were BEGM supplemented with 5 ng/mL hEGF (Sigma, cat. no. E5036), 70 ng/mL phosphoethanolamine (Sigma, cat. no. P0503), and 10% fetal bovine serum. Plates were incubated overnight at 37 °C, 95% humidity, and 5% CO2. The culture medium was replaced with 50 μL of a fresh medium, and compounds were applied to the cells in triplicate. Plates were cultured for another 72 h, and ATP was quantified using a CellTiter-Glo kit (Promega #G7573) according to the manufacturer’s protocol. The luminescence signal was detected using a PHERAstar FS (BMG Labtech).

[3] = healthy volunteers, single 400 mg dose, a few hours after administration; cited from earlier work
[4] = THLE-2, 72 h of incubation, ranges for ANF and 1 and for RZF and 2 stated jointly, read-out: IC50 value (THLE-2 viability)
[5] = THLE-2, 72 h, ATP luminescence, read-out: IC50 (cell viability)

For `CCCCCOc1ccc(-c2ccc(-c3ccc(C(=O)N[C@H]4C[C@@H](O)[C@@H](O)NC(=O)[C@@H]5[C@@H](O)[C@@H](C)CN5C(=O)[C@H]([C@@H](C)O)NC(=O)[C@H]([C@H](O)[C@@H](O)c5ccc(O)cc5)NC(=O)[C@@H]5C[C@@H](O)CN5C(=O)[C@H]([C@@H](C)O)NC4=O)cc3)cc2)cc1` [ANF, anidulafungin] ({pTerphenylCO(4''-OnC5H11)}-[Orn(4R-OH,5R-OH)]T[Hyp][hTyr(3S-OH,4S-OH)]T[Pro(3S-OH,4S-Me)]; lactam 1-C), the Cmax [1] is listed as roughly 7 µM, the IC50 [2, 4] is listed as 36 to 41 µM and the IC50 [2, 5] is listed as 40.6 ± 2.9 µM.

In the case of `CCCCCOc1ccc(-c2ccc(-c3ccc(C(=O)N[C@H]4C[C@@H](O)[C@@H](O)NC(=O)[C@@H]5[C@@H](O)[C@@H](C)CN5C(=O)[C@H]([C@@H](C)O)NC(=O)[C@H]([C@H](O)Cc5ccc(O)cc5)NC(=O)[C@@H]5C[C@@H](O)CN5C(=O)[C@H]([C@@H](C)O)NC4=O)cc3)cc2)cc1` [Compound 1, dehydroxy-ANF] ({pTerphenylCO(4''-OnC5H11)}-[Orn(4R-OH,5R-OH)]T[Hyp][hTyr(3R-OH)]T[Pro(3S-OH,4S-Me)]; lactam 1-C), the IC50 [2, 4] is reported as 36 to 41 µM and the IC50 [2, 5] is reported as 36.4 ± 2.75 µM.

Compound `CCCCCOc1ccc(-c2ccc(-c3ccc(C(=O)N[C@H]4C[C@@H](O)[C@@H](OCC[N+](C)(C)C)NC(=O)[C@@H]5[C@@H](O)[C@@H](C)CN5C(=O)[C@H]([C@@H](C)O)NC(=O)[C@H]([C@H](O)Cc5ccc(O)cc5)NC(=O)[C@@H]5C[C@@H](O)CN5C(=O)[C@H]([C@@H](C)O)NC4=O)cc3)cc2)cc1` [Compound 2, dehydroxy-RZF] ({pTerphenylCO(4''-OnC5H11)}-[Orn(4R-OH,5R-OCH2CH2NMe3+)]T[Hyp][hTyr(3R-OH)]T[Pro(3S-OH,4S-Me)]; lactam 1-C) has an IC50 [2, 4] of 36 to 77 µM and an IC50 [2, 5] of 55.9 ± 3 µM.

For `CCCCCOc1ccc(-c2ccc(-c3ccc(C(=O)N[C@H]4C[C@@H](O)[C@@H](OCC[N+](C)(C)C)NC(=O)[C@@H]5[C@@H](O)[C@@H](C)CN5C(=O)[C@H]([C@@H](C)O)NC(=O)[C@H]([C@H](O)[C@@H](O)c5ccc(O)cc5)NC(=O)[C@@H]5C[C@@H](O)CN5C(=O)[C@H]([C@@H](C)O)NC4=O)cc3)cc2)cc1` [RZF, rezafungin] ({pTerphenylCO(4''-OnC5H11)}-[Orn(4R-OH,5R-OCH2CH2NMe3+)]T[Hyp][hTyr(3S-OH,4S-OH)]T[Pro(3S-OH,4S-Me)]; lactam 1-C), the Cmax [3] is given as roughly 17 µM, the IC50 [2, 4] is given as 36 to 77 µM and the IC50 [2, 5] is given as 76.6 ± 4.8 µM.
